One may read the melting point as the temperature of the solid-liquid transition.

The values below come from US6638953B2, “Indole derivatives as 5-HT receptor antagonist” (SmithKline Beecham p.l.c., priority 1995, dated 2003).

In series [1] the test system is MCPP-induced Hypolocomotion. As to the kind of experiment: Reversal of MCPP-induced hypolocomotion. The conditions noted are these: po, procedure of WO 94/04533, read-out: ID50 (the source's name). It is filed as in vivo. The text has this: Reversal of MCPP-induced Hypolocomotion

In turn, `COc1cc2c(cc1C(F)(F)F)N(C(=O)Nc1ccc(Oc3cccnc3)nc1)CC2` [Example 53, 5-Methoxy-6-trifluoromethyl-1-[6(pyridin-3-yloxy)pyridin-3-ylcarbamoyl]indoline] gave a melting point of 202 to 204 °C. The ED50 in series [1] lay within 0.5 to 5.5 mg/kg.

For the compound `CSc1cc2c(cc1C(F)(F)F)N(C(=O)Nc1ccc(Oc3cccnc3)nc1)CC2` [Example 52], the melting point is 193 to 194 °C. Also, the ED50 in series [1] fell in the range of 0.5 to 5.5 mg/kg.

`CCc1cc(NC(=O)N2CCc3cc(OC)c(C(F)(F)F)cc32)cc(-c2cccnc2)c1` [Example 42, 1-[5-Ethyl-3-(pyrid-3-yl)phenylcarbamoyl]-5-methoxy-6-trifluoromethylindoline]: the melting point was in the range of 205 to 207 °C. The ED50 in series [1] fell in the range of 0.5 to 5.5 mg/kg.

In turn, `COc1cc2c(cc1C(F)(F)F)N(C(=O)Nc1ccc(Cl)c(-c3cccnc3)c1)CC2` [Example 26, 1-(4-Chloro-3-(pyrid-3-yl)phenylcarbamoyl)-5-methoxy-6-trifluoromethylindoline] returned a melting point of 210 to 213 °C. Also, in series [1], the ED50 fell in the range of 0.5 to 5.5 mg/kg.

As to `COc1cc2c(cc1C(F)(F)F)N(C(=O)Nc1ccc(C)c(-c3cccnc3)c1)CC2` [Example 7, 1-[4-Methyl-3-(3-Pyridyl)phenylcarbamoyl]-5-methoxy-6-trifluoromethyl Indoline], the melting point lay in the range of 211 to 212 °C. The ED50 in series [1] is 0.5 to 5.5 mg/kg.

In the case of `COc1cc2c(cc1C(F)(F)F)N(C(=O)Nc1ccc(OCc3ccncc3)cc1)CC2` [Example 54, 5-Methoxy-6-trifluoromethyl-1-[4-(pyridin-4-ylmethyloxy)phenyl Carbamoyl]indoline], the melting point was 205 to 207 °C. In addition, the ED50 in series [1] is 0.5 to 5.5 mg/kg.

In turn, `CSc1cc2c(cc1C(F)(F)F)N(C(=O)Nc1ccc(C)c(-c3cccnc3)c1)CC2` [Example 24, 1-(4-Methyl-3-(pyrid-3-yl)phenylcarbamoyl)-5-thiomethyl-6-trifluoromethyl Indoline] showed a melting point of 221 to 223 °C. Also, the ED50 in series [1] was 0.5 to 5.5 mg/kg.

Regarding `COc1cc2c(cc1C(F)(F)F)N(C(=O)Nc1ccc(Oc3cccnc3C)nc1)CC2` [Example 81, 5-Methoxy-6-trifluoromethyl-1-[6-(2-methylpyridin-3-yloxy)pyridin-3-ylcarbamoyl]indoline], the melting point was in the range of 227 to 230 °C. Moreover, in series [1], the ED50 was in the range of 0.5 to 5.5 mg/kg.

For the compound `COc1cc2c(cc1C(F)(F)F)N(C(=O)Nc1cc(F)cc(-c3cnccc3C)c1)CC2` [Example 21, 1-(3-Fluoro5-(4-methyl-3-pyridyl)phenylcarbamoyl)-5-methoxy-6-trifluoromethylindoline], the melting point is 191 to 195 °C. The ED50 in series [1] is 0.5 to 5.5 mg/kg.

For the compound `COc1cc2c(cc1C(F)(F)F)N(C(=O)Nc1ccc(F)c(-c3cccnc3)c1)CC2` [Example 77, 1-[4-Fluoro-3-(3-pyridyl)phenylcarbamoyl]-5-methoxy-6-trifluoromethyl Indoline], the melting point fell in the range of 210 to 212 °C. Also, the ED50 in series [1] was 0.5 to 5.5 mg/kg.

`CSc1cc2c(cc1C(F)(F)F)N(C(=O)Nc1cccc(-c3cccnc3)c1)CC2` [Example 3, 1-[(3-Pyridyl)-3-phenyl Carbamoyl]-5-methylthio-6-trifluoromethyl Indoline]: the melting point fell in the range of 208 to 210 °C. In series [1], the ED50 lay within 0.5 to 5.5 mg/kg.
